# Data: paper PMC11061149, “Protein mimetic 2D FAST rescues alpha synuclein aggregation mediated early and post disease Parkinson’s phenotypes” (Nature Communications, 2024)
# Values joined by “and” are separate entries in the source; they are usually repeats but may differ in a detail not shown here. Equal entries are not always repeated.
# Experiments:
# [1] = system: NL5901 worms; assay: Motility assay of NL5901 worms (WMicroTracker ARENA); format: in vivo, C. elegans; conditions: for Motility of NL5901 worms + NS132: individual trials
# Method: Briefly, all worm strains were bleached at the same time and the eggs were incubated on PLATE 1. On day two, the worms were divided into two batches. […] The liquid media for PLATE 4 A/B was prepared with 67.28% (v/v) of M9 buffer, 75 μM FUDR, 0.1% of 1 M magnesium sulfate (v/v), 0.1% of 1 M calcium chloride (v/v), 2.5% of 1 M potassium phosphate solution (pH 6, v/v), and 30% (v/v) of OP50 (0.5 OD600nm). […] To test the effect of each ligand on disease worm strains (NL5901 or UA196), there were four conditions were used in PLATE 4 A/B: […] The assay was started on day four using the WMicroTracker ARENA plate reader (Phylumtech, Santa Fe, Argentina) at 20 °C for 1 h per day over a 14-day period at intervals of 24 h. The WMicroTracker ARENA plate reader uses a large array of infrared light microbeams in each well of the plate to detect the interference caused by the movement of the worms. The output by the ARENA plate reader is an average of the overall movement of all worms present in each well, which is denoted as the motility of the worms in each well. […] After collecting the data each day, the PLATE 4 A/B was again placed on the shaker (100 rpm) at 20 °C in the incubator. The PLATE 4 A/B was on the on the shaker (100 rpm) at 20 °C in the incubator the whole duration of the experiment except only when the reading was collected on the WMicroTracker ARENA plate reader for 1 h.
# [2] = system: UA196 worms; assay: Confocal counting of healthy DA neurons, post-disease onset PD model of UA196 worms (treatment on day five); format: in vivo, C. elegans
# Method: The UA196 worms were bleached, and the eggs were incubated on PLATE 1. On day two, the UA196 worms were transferred (using M9 buffer) on PLATE 2 (without ligand). On day five, 10 UA196 worms were used to determine the number of healthy DA worms using confocal imaging (as described earlier) prior to the treatment with ligands on day five. In tandem, ~50 worms were transferred to PLATE 3 (with ligand) using M9 buffer (10-20 µL) and the plate was incubated at 20 °C in the incubator. On days 10 and 15, 10 UA196 worms from PLATE 2 (without ligand) and PLATE 3 (with ligand) were used to determine the number of healthy DA worms using confocal imaging (as described earlier). For each condition, six biological replicates were performed and at least 10 technical replicates were used for each biological replicate. […] (n = 6 independent experiments and each n consisted of a minimum of ten technical replicates).
# [3] = target: T1, αS (Homo sapiens, UniProt P37840); assay: Isothermal titration calorimetry (ITC); format: binding; conditions: ligand titrated into 15 μM αS in PBS; read-out: dissociation constant (Kd)
# T1 construct: made in house; host or cells: E. coli BL21(DE3)
# Method: The ITC experiments were performed in a NANO-ITC (TA Instruments, New Castle, DE). For each ITC experiment, a solution of 250 μM NS132 in PBS was serially titrated (2 μL injections […] via rotary syringe, stirring speed at 300 rpm) into a sample cell containing 350 μL of 15 μM αS in the same buffer conditions at 300 sec intervals. The heat associated with each injection was calculated by integrating each heat burst curve using NanoAnalyze software (TA Instruments, New Castle, DE). The associated heat for each injection of NS132 in αS solution was corrected by subtracting heat resulted from the titration of NS132 into buffer (in 1 × PBS) under identical conditions. The corrected heat values were plotted as a function of the molar ratio of NS132 to αS and the plot was fitted using a one binding site independent model available in NanoAnalyze software. The fitting was carried out using 10,000 iterations in the software without any data constraints during the fitting. The ITC titrations were conducted in triplicate and the reported thermodynamic parameters were calculated as an average of three independent experiments.
# [4] = target: T2, αS fibers-catalyzed aggregation of αS (Homo sapiens, UniProt P37840); assay: αS fibers-catalyzed aggregation of αS, ThT kinetic assay; format: biochemical
# T2 construct: made in house; host or cells: E. coli BL21(DE3)
# [5] = target: T3, αS fibers (PMCA) (Homo sapiens, UniProt P37840); assay: Protein misfolding cyclic amplification assay (PMCA), ThT readout; format: biochemical
# T3 construct: made in house; host or cells: E. coli BL21(DE3)
# Method: The PMCA assay was performed according to a previously described protocol. Briefly, an αS solution (100 µM) was prepared in PBS and 60 µL of the solution was placed in a 200 µL Polymerase Chain Reaction (PCR) tube and the mixture was subjected to five 24 h cycles of 1 min shaking (1200 rpm) and 29 min incubation at 37 °C. Every 24 h, 1 µL of αS solution was passaged to seed 60 µL of fresh soluble monomeric αS solution. The seeding cycle was repeated for five days, after which the ThT signal was measured for all five passages. For the preparation of PMCA samples of αS in the presence of NS132, a molar ratio of 1:1 (αS:NS132) was maintained. All experiments were performed in triplicate. The reported ThT intensity values are the average of three separate experiments with the error bars representing the standard deviations.
# [6] = UA196 worms+NS132, Day 10, per trial (10 worms)
# [7] = UA196 worms+NS132, Day 15, per trial (10 worms)
smiles,measurement,setting,value
Cc1ccc(NC(=O)c2ccc(NC(=O)c3ccc([N+](=O)[O-])c(NCCc4c[nH]c5ccccc45)n3)c(NCC3CCCCC3)n2)c(OCC(=O)O)n1 [NS132],"motility of NL5901 worms, in words",[1]; 50 μM ligand on day two and day four,increase in the motility
same,Motility of NL5901 worms + NS132,[1]; Day 4,255 and 287 and 207 and 297
same,Motility of NL5901 worms + NS132,[1]; Day 5,181 and 139 and 108 and 189
same,Motility of NL5901 worms + NS132,[1]; Day 6,201 and 130 and 176 and 121
same,Motility of NL5901 worms + NS132,[1]; Day 7,101 and 172 and 160 and 83
same,Motility of NL5901 worms + NS132,[1]; Day 8,129 and 117 and 94 and 99
same,Motility of NL5901 worms + NS132,[1]; Day 9,107 and 89 and 145 and 65
same,Motility of NL5901 worms + NS132,[1]; Day 10,127 and 107 and 105 and 52
same,Motility of NL5901 worms + NS132,[1]; Day 11,74 and 83 and 88 and 72
same,Motility of NL5901 worms + NS132,[1]; Day 12,57 and 70 and 69 and 56
same,Motility of NL5901 worms + NS132,[1]; Day 13,38 and 34 and 42 and 33
same,Motility of NL5901 worms + NS132,[1]; Day 14,27 and 43 and 19 and 20
same,number of intact healthy DA neurons (max. 60),"[2]; 50 μM ligand on day five, day 15 (untreated 13.8 / 12.8)",32
same,"healthy DA neurons, Average","[2]; UA196+ 50 uM NS132, day 5 (same value as UA196 control)",44.8333
same,"healthy DA neurons, Average","[2]; UA196+ 50 uM NS132, day 10",34.8333
same,"healthy DA neurons, Average","[2]; UA196+ 50 uM NS132, day 15",32
same,healthy DA neurons per trial,"[2]; UA196 worms+Ligands, single trials 1-6, day not given",31 and 33
same,Number of worms with 5 neurons,[2]; [6],1 and 2
same,Number of worms with 6 neurons,[2]; [6],0
same,number of worms with 3 neurons,[2]; [6],4 and 3
same,number of worms with 4 neurons,[2]; [6],3 and 4
same,Number of worms with 2 neurons,[2]; [7],1 and 2
same,Number of worms with 5 neurons,[2]; [7],0
same,Number of worms with 6 neurons,[2]; [7],0
same,number of worms with 3 neurons,[2]; [7],4 and 3 and 2
same,number of worms with 4 neurons,[2]; [7],4 and 5 and 6
same,Kd,[3],1810 ± 330 nM
same,"ThT fluorescence intensity, Average","[4]; 100 µM αS + αS fibers (20% monomer conc.) + equimolar ligand, time 0 hr",181.667
same,"effect on αS fibers-catalyzed aggregation of αS, in words","[4]; 100 μM αS, preformed αS fibers 20%, equimolar ligand",wholly suppressed
same,"ThT fluorescence intensity, Average","[4]; seeded, equimolar ligand, time 3 hr",168
same,"ThT fluorescence intensity, Average","[4]; seeded, equimolar ligand, time 6 hr",160.333
same,"ThT fluorescence intensity, Average","[4]; seeded, equimolar ligand, time 9 hr",164
same,"ThT fluorescence intensity, Average","[4]; seeded, equimolar ligand, time 12 hr",200.667
same,"ThT fluorescence intensity, Average","[4]; seeded, equimolar ligand, time 24 hr",255
same,"ThT fluorescence intensity, Average","[4]; seeded, equimolar ligand, time 36 hr",243.333
same,"ThT fluorescence intensity, Average","[4]; seeded, equimolar ligand, time 48 hr",299.333
same,"ThT intensity of PMCA sample, individual trials","[5]; Cycle 1, αS:NS132 1:1, before PK treatment",58 and 56 and 50
same,"ThT intensity of PMCA sample, individual trials","[5]; Cycle 2, αS:NS132 1:1",63 and 49 and 51
same,"ThT intensity of PMCA sample, individual trials","[5]; Cycle 3, αS:NS132 1:1",57 and 62 and 53
same,"ThT intensity of PMCA sample, individual trials","[5]; Cycle 4, αS:NS132 1:1",60 and 48 and 64
same,"ThT intensity of PMCA sample, individual trials","[5]; Cycle 5, αS:NS132 1:1",86 and 68 and 66
same,"change in ThT intensity of PMCA samples, in words","[5]; equimolar ratio, up to cycle five",did not observe any significant change
